This test deals with FabG4 (β-ketoacyl CoA reductase, EC 1.1.1.100) (Mycobacterium tuberculosis, UniProt I6Y778).

Structures are written as SMILES.

For `COc1ccc(C(c2ccc(OCCN(C(C)C)C(C)C)cc2)c2cccs2)cc1` (racemic) [S-S006-830, diisopropyl-(2-{4-[(R,S)-(4-methoxy-phenyl)-thiophen-2-yl-methyl]-phenoxy}-ethyl)-amine (printed for the racemate S006-830)], the “affinity pull-down on compound-linked agarose beads, 2-DE, LC-MS-MS” value was “The pull-down of FabG4 by drug-affinity beads along with its overexpression by S-S006-830-resistant Mtb”.

The values are drawn from article PMC6045410 (ACS Omega, 2017).
